According to patent US8318186B2, “Use of at least a fatty ester for preparing a composition designed to inhibit 5-α-reductase activity, in pharmacology, in particular dermatology, in cosmetics and as food additive” (Laboratoires Expanscience, priority 2000, dated 2012):
“And” between values parts separate entries of the source, which are not always exact repeats. Equal values may be shown once. Marks after values point to notes of the source that are not given here.

Legend:
5α-reductase = experiment: Fatty acid esters on 5α-reductase activity, conversion of testosterone to 5α-dihydrotestosterone in normal human dermal fibroblast cultures (Example 4); format: cell-based; set-up: key to group by 5α-reductase inhibitory activity: group A with the highest inhibitory activity; group B with an intermediate inhibitory activity; settings: for inhibition of the 5α-reductase activity: Example 4, p<0.05; for 5α-DHT formed per culture well, mean / 5α-DHT formed per culture well, single well: after 24 of incubation, DMSO 0.1% (v/v); for 5α-DHT formed per culture well, single well: single replicate
Experimental: The fibroblast culture medium (FCM) consisted of MEM/M199 (3:1, v/v) supplemented with penicillin (50 IU/ml), streptomycin (50 μg/ml), sodium bicarbonate (0.2%, w/v) and FCS (10%, v/v).
The assay system consisted of normal human dermal fibroblasts cultured as a monolayer. The fibroblasts were isolated from a residue from abdominal plastic surgery performed on a person (subject BIOPREDIC No. I0013). The cells were used at the fifth passage; they were cultured until the monolayers were confluent in FCM medium at 37° C. in a humid atmosphere containing 5% CO2.
The fibroblast incubation medium (FIM) consisted of FCM supplemented with tritiated testosterone (1.6×10^−7 M, that is 6.32 μCi/ml) and nonradiolabeled testosterone (3.84×10^−6 M)
The test products and finasteride were taken up in DMSO before being diluted in the incubation medium. […]
The fibroblast cultures were preincubated in the presence of the test products or of the reference product for 2 hours before adding the substrate, testosterone. For this step, the test products and the reference product were prepared in the FCM medium.
After preincubation, the fibroblast cultures were incubated in the presence of the test products or of the reference product prepared in the FIM medium for 22 hours at 37° C. in a humid atmosphere containing 5% CO2. Control cultures were incubated in the FIM medium in the absence of test products and of reference product. […]
Each experimental condition was tested in triplicate.
After the incubation period, the cells were subjected to the action of ultrasound in the FIM medium. The cellular lysates thus obtained were extracted with dichloromethane. After evaporation, the dry residues were taken up in methanol and were deposited on 60F254 silica plates (MERCK, reference 5554).
The migration solvent was a mixture of dichloromethane and ether (7:3, v/v) At the end of the migration, the silica plates were read using a BERTHOLD radioactivity scanner.
The metabolizing of testosterone to 5α-dihydro-testosterone under the various experimental conditions was calculated: the results (areas of the 5α-dihydrotestosterone peaks counted by the BERTHOLD scanner) were expressed in pmol of 5α-dihydro-testosterone formed per culture well. They were also expressed as a percentage of the 5α-reductase activity present in the “DMSO control” group.
The groups of data (control group and treated groups) were treated by a one-way analysis of variance (ANOVA 1, p<0.05), followed by a DUNNETT's test (p<0.05). The effect of the test products and of the reference product was compared with the “DMSO control” group. The effects of the test products were compared to each other by a two-way analysis of variance (ANOVA 2, p<0.05, factor 1=concentration and factor 2=treatment).
The same materials and methods are used as in example 3 above.
It was proposed to evaluate the effect of fatty acid esters on the 5α-reductase activity. An in vitro model of normal human dermal fibroblast cultures was selected. The products tested were chosen from the group of fatty acid esters varying in the length and the functionality of the fatty chain, and the nature of the alkoxy group. These esters are the following: methyl oleate, methyl linoleate, methyl stearate, methyl laurate, methyl undecylenate, butyl oleate, oleyl oleate and methyl ricinoleate.

[1] = system: normal human dermal fibroblasts; experiment: Morphological examination of the fibroblasts (Example 4); format: cell-based; settings: at 10 and 100 μg/ml

- state of the fibroblasts by morphological examination of the cells [1]: cellular suffering
SMILES: CCCCCCCC/C=C\CCCCCCCCOC(=O)CCCCCCC/C=C\CCCCCCCC [Oleyl oleate, oleyl oleate]
- 5α-reductase activity as percentage of the “DMSO 0.1% (v/v)” group (5α-reductase; 1 μg/ml): 72 percentage of the “DMSO 0.1% (v/v)” group
- inhibition of the 5α-reductase activity (5α-reductase; 1 μg/ml): 28%
- 5α-DHT formed per culture well, mean (5α-reductase; 1 μg/ml): 8.17* +/− pmol of 5α-DHT formed/culture well
- 5α-DHT formed per culture well, single well (5α-reductase; 1 μg/ml): 9.00 pmol of 5α-DHT formed/culture well and 7.32 pmol of 5α-DHT formed/culture well and 8.20 pmol of 5α-DHT formed/culture well
- 5α-reductase activity as percentage of the “DMSO 0.1% (v/v)” group (5α-reductase; 10 μg/ml): 55 percentage of the “DMSO 0.1% (v/v)” group
- inhibition of the 5α-reductase activity (5α-reductase; 10 μg/ml): 45%
- 5α-DHT formed per culture well, mean (5α-reductase; 10 μg/ml): 6.25* +/− pmol of 5α-DHT formed/culture well
- 5α-DHT formed per culture well, single well (5α-reductase; 10 μg/ml): 6.12 pmol of 5α-DHT formed/culture well and 6.44 pmol of 5α-DHT formed/culture well and 6.20 pmol of 5α-DHT formed/culture well
- 5α-reductase activity as percentage of the “DMSO 0.1% (v/v)” group (5α-reductase; 100 μg/ml): 65 percentage of the “DMSO 0.1% (v/v)” group
- inhibition of the 5α-reductase activity (5α-reductase; 100 μg/ml): 35%
- 5α-DHT formed per culture well, mean (5α-reductase; 100 μg/ml): 7.45* +/− pmol of 5α-DHT formed/culture well
- 5α-DHT formed per culture well, single well (5α-reductase; 100 μg/ml): 6.28 pmol of 5α-DHT formed/culture well and 8.60 pmol of 5α-DHT formed/culture well and 7.48 pmol of 5α-DHT formed/culture well
- group by 5α-reductase inhibitory activity (5α-reductase; tested at 1, 10 and 100 μg/ml): A
